Measurements published in the supplement of paper PMC10307832.

Experiments:
Assay in all cases: relative viability (nuclei count vs DMSO), 5 days (fraction); higher = more cells survive
[1] = system: EBC-1
Summary of the method: (§1)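 For relative viability, nuclei counts in treated wells were divided by those in vehicle wells. Lung cancer cell lines had been pin-tool dosed in 1536-well plates the day after seeding and cultured for 5 days, then fixed and stained in one step (final 0.05% Triton X-100, 1% formaldehyde, 1 ug/ml Hoechst) and imaged at 4×. Doses were one drug alone or a fixed anchor-drug dose plus five library-drug doses (not always all listed) in √10 steps, and values are duplicate-plate medians.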

[2] = system: NCI-H1299
Summary of the method: as §1

[3] = system: NCI-H2023
Summary of the method: as §1

[4] = system: A549
Summary of the method: as §1

[5] = system: NCI-H520
Summary of the method: as §1

[6] = system: NCI-H1703
Summary of the method: as §1

[7] = system: NCI-H727
Summary of the method: as §1

[8] = system: Calu-6
Summary of the method: as §1

[9] = system: IA-LM
Summary of the method: as §1

In the case of `CCNC(=O)c1noc(-c2cc(C(C)C)c(O)cc2O)c1-c1ccc(CN2CCOCC2)cc1` [Luminespib] + C[C@]1(O)C[C@@H](c2nc(-c3ccc4ccc(-c5ccccc5)nc4c3)c3c(N)nccn32)C1 [Linsitinib] (partner 1 µM), the relative viability ([1]; first compound 0.002 µM) is reported as 0.919, the relative viability ([1]; first compound 0.006325 µM) is reported as 0.89 and the relative viability ([1]; first compound 0.02 µM) is reported as 0.273. It also gave a relative viability ([1]; first compound 0.06325 µM) of 0.0912, a relative viability ([1]; first compound 0.2 µM) of 0.0942 and a relative viability ([2]; first compound 0.002 µM) of 0.978. The relative viability ([2]; first compound 0.006325 µM) was 0.935, the relative viability ([2]; first compound 0.02 µM) was 0.989 and the relative viability ([2]; first compound 0.06325 µM) was 0.582. For the same compound, the relative viability ([2]; first compound 0.2 µM) was 0.451, the relative viability ([3]; first compound 0.002 µM) was 0.652 and the relative viability ([3]; first compound 0.006325 µM) was 0.575. For the same compound, the relative viability ([3]; first compound 0.02 µM) was 0.732, the relative viability ([3]; first compound 0.06325 µM) was 0.0892 and the relative viability ([3]; first compound 0.2 µM) was 0.0832. It also gave a relative viability ([4]; first compound 0.002 µM) of 0.645, a relative viability ([4]; first compound 0.006325 µM) of 0.583 and a relative viability ([4]; first compound 0.02 µM) of 0.236. For the same compound, the relative viability ([4]; first compound 0.06325 µM) was 0.14, the relative viability ([4]; first compound 0.2 µM) was 0.0621 and the relative viability ([5]; first compound 0.002 µM) was 1.27. The relative viability ([5]; first compound 0.006325 µM) was 0.966, the relative viability ([5]; first compound 0.02 µM) was 0.94 and the relative viability ([5]; first compound 0.06325 µM) was 0.134. It also gave a relative viability ([5]; first compound 0.2 µM) of 0.121, a relative viability ([6]; first compound 0.002 µM) of 1.26 and a relative viability ([6]; first compound 0.006325 µM) of 0.448. The relative viability ([6]; first compound 0.02 µM) was 0.426, the relative viability ([6]; first compound 0.06325 µM) was 0.0721 and the relative viability ([6]; first compound 0.2 µM) was 0.123. The relative viability ([7]; first compound 0.002 µM) was 0.317, the relative viability ([7]; first compound 0.006325 µM) was 0.258 and the relative viability ([7]; first compound 0.02 µM) was 0.284. The relative viability ([7]; first compound 0.06325 µM) was 0.221, the relative viability ([7]; first compound 0.2 µM) was 0.211 and the relative viability ([8]; first compound 0.002 µM) was 1.08. It also gave a relative viability ([8]; first compound 0.006325 µM) of 0.783, a relative viability ([8]; first compound 0.02 µM) of 0.712 and a relative viability ([8]; first compound 0.06325 µM) of 0.0985. For the same compound, the relative viability ([8]; first compound 0.2 µM) was 0.0978, the relative viability ([9]; first compound 0.002 µM) was 0.601 and the relative viability ([9]; first compound 0.006325 µM) was 0.424. It also gave a relative viability ([9]; first compound 0.02 µM) of 0.284, a relative viability ([9]; first compound 0.06325 µM) of 0.0358 and a relative viability ([9]; first compound 0.2 µM) of 0.0299.

`Nc1cccc2c1CN(C1CCC(=O)NC1=O)C2=O` (stereo unspecified) [Lenalidomide] + CC(C)C[C@H](NC(=O)[C@H](Cc1ccccc1)NC(=O)c1cnccn1)B(O)O [Bortezomib] (partner 0.002 µM) gave a relative viability ([1]; first compound 0.253 µM) of 0.653, a relative viability ([1]; first compound 0.8 µM) of 0.589 and a relative viability ([1]; first compound 2.53 µM) of 0.684. The relative viability ([1]; first compound 8 µM) was 0.564, the relative viability ([2]; first compound 0.253 µM) was 1.03 and the relative viability ([2]; first compound 0.8 µM) was 1.01. It also gave a relative viability ([2]; first compound 2.53 µM) of 1.06, a relative viability ([2]; first compound 8 µM) of 1.06 and a relative viability ([3]; first compound 0.253 µM) of 0.954. The relative viability ([3]; first compound 0.8 µM) was 1.08, the relative viability ([3]; first compound 2.53 µM) was 1.08 and the relative viability ([3]; first compound 8 µM) was 0.744. It also gave a relative viability ([5]; first compound 0.253 µM) of 0.529, a relative viability ([5]; first compound 0.8 µM) of 0.933 and a relative viability ([5]; first compound 2.53 µM) of 0.984. The relative viability ([5]; first compound 8 µM) was 0.365, the relative viability ([6]; first compound 0.253 µM) was 0.231 and the relative viability ([6]; first compound 0.8 µM) was 0.399. The relative viability ([6]; first compound 2.53 µM) was 0.328, the relative viability ([6]; first compound 8 µM) was 0.47 and the relative viability ([7]; first compound 0.253 µM) was 0.81. For the same compound, the relative viability ([7]; first compound 2.53 µM) was 1.05, the relative viability ([7]; first compound 8 µM) was 0.791 and the relative viability ([8]; first compound 0.253 µM) was 1.04. For the same compound, the relative viability ([8]; first compound 0.8 µM) was 1.01, the relative viability ([8]; first compound 2.53 µM) was 0.997 and the relative viability ([8]; first compound 8 µM) was 1.06. The relative viability ([9]; first compound 0.253 µM) was 0.946, the relative viability ([9]; first compound 0.8 µM) was 0.753 and the relative viability ([9]; first compound 2.53 µM) was 0.884. It also gave a relative viability ([9]; first compound 8 µM) of 0.764.

Work on `CCNC(=O)c1noc(-c2cc(C(C)C)c(O)cc2O)c1-c1ccc(CN2CCOCC2)cc1` [Luminespib] + CC(C)C[C@H](NC(=O)[C@H](Cc1ccccc1)NC(=O)c1cnccn1)B(O)O [Bortezomib] (partner 0.002 µM) yielded a relative viability ([1]; first compound 0.002 µM) of 0.583, a relative viability ([1]; first compound 0.006325 µM) of 0.541 and a relative viability ([1]; first compound 0.02 µM) of 0.318. It also gave a relative viability ([1]; first compound 0.06325 µM) of 0.118, a relative viability ([1]; first compound 0.2 µM) of 0.169 and a relative viability ([2]; first compound 0.002 µM) of 1.01. It also gave a relative viability ([2]; first compound 0.006325 µM) of 0.999, a relative viability ([2]; first compound 0.02 µM) of 1.04 and a relative viability ([2]; first compound 0.06325 µM) of 0.946. It also gave a relative viability ([2]; first compound 0.2 µM) of 0.248, a relative viability ([3]; first compound 0.002 µM) of 1.04 and a relative viability ([3]; first compound 0.006325 µM) of 0.958. It also gave a relative viability ([3]; first compound 0.02 µM) of 0.29, a relative viability ([3]; first compound 0.06325 µM) of 0.069 and a relative viability ([3]; first compound 0.2 µM) of 0.0759. The relative viability ([5]; first compound 0.002 µM) was 0.556, the relative viability ([5]; first compound 0.006325 µM) was 0.51 and the relative viability ([5]; first compound 0.02 µM) was 0.41. The relative viability ([5]; first compound 0.06325 µM) was 0.103, the relative viability ([5]; first compound 0.2 µM) was 0.109 and the relative viability ([6]; first compound 0.002 µM) was 0.494. The relative viability ([6]; first compound 0.006325 µM) was 0.415, the relative viability ([6]; first compound 0.02 µM) was 0.224 and the relative viability ([6]; first compound 0.06325 µM) was 0.13. For the same compound, the relative viability ([6]; first compound 0.2 µM) was 0.14, the relative viability ([7]; first compound 0.002 µM) was 0.802 and the relative viability ([7]; first compound 0.006325 µM) was 0.782. The relative viability ([7]; first compound 0.02 µM) was 0.379, the relative viability ([7]; first compound 0.06325 µM) was 0.23 and the relative viability ([7]; first compound 0.2 µM) was 0.215. It also gave a relative viability ([8]; first compound 0.002 µM) of 1.06, a relative viability ([8]; first compound 0.006325 µM) of 0.883 and a relative viability ([8]; first compound 0.02 µM) of 1.21. For the same compound, the relative viability ([8]; first compound 0.06325 µM) was 0.141, the relative viability ([8]; first compound 0.2 µM) was 0.159 and the relative viability ([9]; first compound 0.002 µM) was 0.819. For the same compound, the relative viability ([9]; first compound 0.006325 µM) was 0.951, the relative viability ([9]; first compound 0.02 µM) was 0.648 and the relative viability ([9]; first compound 0.06325 µM) was 0.067. For the same compound, the relative viability ([9]; first compound 0.2 µM) was 0.0656.
